In patent US11684616B2, “Azalactam compounds as HPK1 inhibitors” (PFIZER INC., priority 2020, dated 2023):
Where two headings read alike, the source gives them in different places.

How the values were obtained:
[1] = molecular target: human full-length autophosphorylated recombinant HPK1 (Homo sapiens (Human), UniProt Q92918); test: HPK1 biochemical enzyme assay (chelation-enhanced fluorescence, CHEF); conditions: 0.5 nM HPK1, 45 μM ATP, Morrison fit
Protocol: HPK1 Biochemical Enzyme Assay
HPK1 enzyme inhibition was measured by using the fluorescence-based chelation-enhanced fluorescence (CHEF) method (1), and by using a proprietary fluorescent peptide substrate, in which a cysteine residue is alkylated with a sulfonamido-oxine-based derivative to afford an amino acid termed C-Sox (CSx). […] Initial reaction velocities were determined by following the peptide fluorescence (λex=360 nm, λem=500 nm) at 30° C. for 15 min in a Tecan M1000 plate reader (Tecan Group Ltd., Mannedorf, Zurich, Switzerland).
Production of Autophosphorylated Full-Length Recombinant HPK1
The DNA sequence encoding full-length human HPK1 (Genbank NM_001042600.2) was synthesized at GenScript and contained a limited number of silent base changes to eliminate certain restriction endonuclease enzyme recognition sites, and fused to a DNA sequence encoding a Tobacco Etch Virus (TEV)-cleavable N-terminal polyhistidine purification tag. A recombinant baculovirus was prepared by using the Bac-to-Bac method (InVitrogen) and was used to infect 9 L of Sf21 insect cells. All purification steps were carried out at 4° C. Cells containing recombinant HPK1 were lysed in 50 mM HEPES-NaOH, pH 7.5, 250 mM NaCl, 1 mM tris(2-carboxyethyl)phosphine (TCEP), 10 μM leupeptin (Sigma), 10 μM E-64 (Sigma), and one ‘EDTA-free’ protease inhibitor tablet (Roche) per 75 mL buffer, centrifuged at 15,000×g for 1 h and the supernatant passed over 5 mL of ProBond IMAC resin (InVitrogen). After washing, HPK1 was eluted with 12.5 mL of 50 mM HEPES-NaOH, pH 7.5, 400 mM NaCl, 250 mM imidazole-HCl pH 7.5, 1 mM TCEP, 2 μM leupeptin, and 2 μM E-64. The eluted HPK1 was dialyzed overnight against 0.8 L of 50 mM HEPES-NaOH, pH 7.5, 400 mM NaCl, 20 mM imidazole-HCl pH 7.5, 1 mM TCEP, 2 μM leupeptin, 2 μM E-64, 2 mM ATP-NaOH pH 7.3, 5 mM MgCl2 and 1 mg TEV (this step simultaneously allows for reduction of the imidazole concentration in preparation for the subsequent reverse IMAC chromatography step, removal of the polyhistidine purification tag by TEV protease, and autophosphorylation of HPK1 in the presence of MgATP). The de-tagged and autophosphorylated HPK1 was adjusted to 40 mM imidazole-HCl, pH 7.5, and passed through a 10 mL column of ProBond resin similarly equilibrated. […] The peak fractions containing HPK1 were pooled and concentrated to approximately 2.5 mL by using a centrifugal concentrator (Millipore). The concentrated HPK1 was adjusted to 20% (v/v) glycerol by the addition of 50% (v/v) glycerol, resulting in a final formulation of 25 mM HEPES-NaOH pH 7.5, 250 mM NaCl, 0.25 mM TCEP and 20% (v/v) glycerol. […] Aliquots of the enzyme were flash frozen in liquid nitrogen and stored at −80° C. The final product contains a glycine-serine extension at the N-terminus of the full-length protein, as a result of the cloning strategy.

[2] = tested on: Phospho-SLP-76 (Ser376) in Jurkat cells; test: Phospho-SLP-76 (Ser376) HTRF assay in anti-CD3 stimulated Jurkat cells; type: cell-based; conditions: 30 min pre-treatment, anti-CD3 stimulation 15 min, read-out: pSLP76 IC50
Protocol: Cell Based Assays Phospho-SLP-76 (Ser376) Homogeneous Time Resolved Fluorescence (HTRF) Assay
Jurkat cells were seeded at 90,000 cells/well in 90 uL of RPMI1640 growth medium containing 10% FBS and incubated at 37° C. with 5% CO2 overnight. The following day, compounds were serially diluted from a 10 mM top dose for an 11-point 3-fold dilution curve in DMSO. Compounds were intermediately diluted 1:100 into growth media prior to diluting 1:10 on cells for final concentration 10 μM to 0.1 nM in 0.1% DMSO. After 30 min pre-treatment with compounds, the cells were stimulated using 200 μg/mL of F(ab)2 complexed anti-CD3 (clone UCTH1) for 15 min at 37° C. with 5% CO2. Stimulation was stopped with ice cold PBS and cells were harvested by centrifugation before lysis in Cisbio lysis buffer (Cisbio, Bedford, Mass.). Lysates were transferred to white, low-volume plates containing anti-phospho-SLP-76-Cryptate plus anti-phospho-SLP-76-d2 HTRF antibodies and incubated overnight at room temperature protected from light according to the manufacturer's protocol (Cisbio, Bedford, Mass.). HTRF was measured on a Perkin Elmer Envision and IC50 values were calculated by concentration-response curve fitting utilizing four-parameter nonlinear regression analyses.

Chain of human full-length autophosphorylated recombinant HPK1 (Q92918 other isoform, or with tags, fused parts or gaps): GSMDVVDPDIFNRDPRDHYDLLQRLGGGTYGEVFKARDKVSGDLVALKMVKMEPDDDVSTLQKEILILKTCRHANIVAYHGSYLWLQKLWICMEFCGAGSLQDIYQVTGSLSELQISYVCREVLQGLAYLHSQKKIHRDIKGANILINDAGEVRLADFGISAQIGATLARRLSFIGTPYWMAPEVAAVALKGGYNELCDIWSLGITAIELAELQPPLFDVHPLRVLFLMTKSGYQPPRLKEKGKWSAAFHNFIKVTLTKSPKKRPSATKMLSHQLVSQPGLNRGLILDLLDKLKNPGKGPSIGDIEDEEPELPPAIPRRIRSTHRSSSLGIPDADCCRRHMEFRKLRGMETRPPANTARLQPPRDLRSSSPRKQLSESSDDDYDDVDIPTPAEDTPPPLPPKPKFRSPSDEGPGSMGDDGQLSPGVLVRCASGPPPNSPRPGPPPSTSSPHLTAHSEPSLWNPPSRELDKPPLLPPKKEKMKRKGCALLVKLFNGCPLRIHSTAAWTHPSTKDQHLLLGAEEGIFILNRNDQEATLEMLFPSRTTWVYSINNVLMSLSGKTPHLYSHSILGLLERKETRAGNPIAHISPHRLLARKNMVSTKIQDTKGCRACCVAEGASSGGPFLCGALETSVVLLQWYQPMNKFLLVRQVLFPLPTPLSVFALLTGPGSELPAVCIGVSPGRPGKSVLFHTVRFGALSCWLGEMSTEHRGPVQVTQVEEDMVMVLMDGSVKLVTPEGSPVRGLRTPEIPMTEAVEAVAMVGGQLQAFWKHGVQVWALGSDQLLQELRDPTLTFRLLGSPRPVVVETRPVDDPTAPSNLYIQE

SMILES: CCn1c(C)nnc1-c1cccc(N2Cc3c(cc(N4CCC[C@H]4C)nc3[C@H](C)NC)C2=O)n1 (single isomer, unassigned) [Example 108]
- Ki [1]: 0.61 nM
- IC50 ([2]; Homo sapiens, Jurkat): 84 nM

SMILES: CCn1cnnc1-c1cccc(N2Cc3c(cc(N(C)C)nc3[C@H](C)N)C2=O)n1 (single isomer, unassigned) [Example 152, 4-[(1ξ)-1-aminoethyl]-6-(dimethyl-amino)-2-[6-(4-ethyl-4H-1,2,4-triazol-3-yl)pyridin-2-yl]-2,3-dihydro-1H-pyrrolo[3,4-c]pyridin-1-one]
- Ki [1]: 1.53 nM
- IC50 ([2]; Homo sapiens, Jurkat): 191 nM

SMILES: C[C@@H]1CCCN1c1cc2c(c([C@@H](C)N)n1)CN(c1cccc(-c3nnc4n3[C@H](C)CC4)n1)C2=O (single isomer, unassigned) [Example 25]
- Ki [1]: < 0.05 nM
- IC50 ([2]; Homo sapiens, Jurkat): 53 nM

SMILES: CC[C@@H](N)c1nc(C2(C)CC2)cc2c1CN(c1cccc(-c3nnc4n3[C@@H](C)CC4)n1)C2=O (single isomer, unassigned) [Example 37]
- Ki [1]: < 0.05 nM
- IC50 ([2]; Homo sapiens, Jurkat): 49 nM

SMILES: CCN(C)c1cc2c(c(C(C)(C)N)n1)CN(c1cccc(-c3nnc(C)n3CC)n1)C2=O [Example 123, 4-(2-aminopropan-2-yl)-6-[ethyl(methyl)amino]-2-[6-(4-ethyl-5-methyl-4H-1,2,4-triazol-3-yl)pyridin-2-yl]-2,3-dihydro-1H-pyrrolo[3,4-c]pyridin-1-one]
- Ki [1]: 0.97 nM
- IC50 ([2]; Homo sapiens, Jurkat): 243 nM

SMILES: CC[C@@H](N)c1nc(C2(C)CC2)cc2c1CN(c1cccc(-c3nnc4n3[C@@H](CO)CC4)n1)C2=O (single isomer, unassigned) [Example 36]
- Ki [1]: 0.074 nM
- IC50 ([2]; Homo sapiens, Jurkat): 110 nM

SMILES: COC[C@@H](N)c1nc(C2(C)CC2)cc2c1CN(c1cccc(-c3nnc4n3[C@@H](CO)CC4)n1)C2=O (single isomer, unassigned) [Example 38]
- Ki [1]: 0.18 nM
- IC50 ([2]; Homo sapiens, Jurkat): 197 nM

SMILES: C[C@H](N)c1nc(N2CCC[C@H]2C)cc2c1CN(c1cccc(-c3nnc4n3[C@H](C)CC4)n1)C2=O (single isomer, unassigned) [Example 27]
- Ki [1]: < 0.05 nM
- IC50 ([2]; Homo sapiens, Jurkat): 56 nM

SMILES: CCn1c(C)nnc1-c1cccc(N2Cc3c(cc(N4CCC[C@H]4C)nc3[C@H](C)N)C2=O)n1 (single isomer, unassigned) [Example 155]
- Ki [1]: 0.24 nM
- IC50 ([2]; Homo sapiens, Jurkat): 113 nM

SMILES: CCCn1cnnc1-c1cccc(N2Cc3c(cc(C4(C)CC4)nc3[C@@H](C)N)C2=O)n1 (single isomer, unassigned) [Example 117, 4-[(1ξ)-1-aminoethyl]-6-(1-methyl-cyclopropyl)-2-[6-(4-propyl-4H-1,2,4-triazol-3-yl)pyridin-2-yl]-2,3-dihydro-1H-pyrrolo[3,4-c]pyridin-1-one]
- Ki [1]: 1.02 nM
- IC50 ([2]; Homo sapiens, Jurkat): 270 nM

SMILES: CCn1cnnc1-c1cccc(N2Cc3c(cc(N4CCC[C@H]4C)nc3[C@@H](C)NC)C2=O)n1 (single isomer, unassigned) [Example 110]
- Ki [1]: 0.09 nM
- IC50 ([2]; Homo sapiens, Jurkat): 42 nM

SMILES: CCn1cnnc1-c1cccc(N2Cc3c(cc(C4(C)CC4)nc3[C@@H](C)N)C2=O)n1 [Example 115, 4-[(1R)-1-aminoethyl]-2-[6-(4-ethyl-4H-1,2,4-triazol-3-yl)pyridin-2-yl]-6-(1-methylcyclo-propyl)-2,3-dihydro-1H-pyrrolo[3,4-c]pyridin-1-one]
- Ki [1]: 0.56 nM
- IC50 ([2]; Homo sapiens, Jurkat): 216 nM

SMILES: CCCn1cnnc1-c1cccc(N2Cc3c(cc(C4(C)CC4)nc3[C@H](N)CC)C2=O)n1 (single isomer, unassigned) [Example 121, 4-[(1ξ)-1-aminopropyl]-6-(1-methylcyclo-propyl)-2-[6-(4-propyl-4H-1,2,4-triazol-3-yl)pyridin-2-yl]-2,3-dihydro-1H-pyrrolo[3,4-c]pyridin-1-one]
- Ki [1]: 4.12 nM
- IC50 ([2]; Homo sapiens, Jurkat): 553 nM

SMILES: COC[C@@H](N)c1nc(C2(C)CC2)cc2c1CN(c1cccc(-c3nnc4n3[C@@H](C)CC4)n1)C2=O [Example 6a, 4-[(1)-1-amino-2-methoxyethyl]-6-(1-methylcyclopropyl)-2-{6-[(5S)-5-methyl-6,7-dihydro-5H-pyrrolo[2,1-c][1,2,4]triazol-3-yl]pyridin-2-yl}-2,3-dihydro-1H-pyrrolo[3,4-c]pyridin-1-one]
- IC50 [2]: 69 nM

SMILES: CCCn1cnnc1-c1cccc(N2Cc3c(cc(N(C)C)nc3[C@H](C)N)C2=O)n1 [Example 137, 4-[(1S)-1-aminoethyl]-6-(dimethyl-amino)-2-[6-(4-propyl-4H-1,2,4-triazol-3-yl)pyridin-2-yl]-2,3-dihydro-1H-pyrrolo[3,4-c]pyridin-1-one]
- IC50 ([2]; Homo sapiens, Jurkat): 189 nM

SMILES: COC[C@@H](N)c1nc(C2(C)CC2)cc2c1CN(c1cccc(-c3nnc4n3[C@@H](C)CC4)n1)C2=O [Example 6b, 4-[(1)-1-amino-2-methoxyethyl]-6-(1-methylcyclopropyl)-2-{6-[(5S)-5-methyl-6,7-dihydro-5H-pyrrolo[2,1-c][1,2,4]triazol-3-yl]pyridin-2-yl}-2,3-dihydro-1H-pyrrolo[3,4-c]pyridin-1-one]
- IC50 [2]: 641 nM

SMILES: CC(C)N(C)c1cc2c(c([C@@H](C)N)n1)CN(c1cccc(-c3nnc4n3[C@@H](C)CC4)n1)C2=O [Example 21, 4-[(1R)-1-aminoethyl]-2-{6-[(5S)-5-methyl-6,7-dihydro-5H-pyrrolo[2,1-c][1,2,4]triazol-3-yl]pyridin-2-yl}-6-[methyl(propan-2-yl)amino]-2,3-dihydro-1H-pyrrolo[3,4-c]pyridin-1-one]
- IC50 ([2]; Homo sapiens, Jurkat): 46 nM

SMILES: CCCn1cnnc1-c1cccc(N2Cc3c(cc(N(C)C)nc3[C@@H](C)N)C2=O)n1 [Example 138, 4-[(1R)-1-aminoethyl]-6-(dimethyl-amino)-2-[6-(4-propyl-4H-1,2,4-triazol-3-yl)pyridin-2-yl]-2,3-dihydro-1H-pyrrolo[3,4-c]pyridin-1-one]
- IC50 ([2]; Homo sapiens, Jurkat): 332 nM

SMILES: CC[C@@H]1CCc2nnc(-c3cccc(N4Cc5c(cc(N(C)C(C)C)nc5[C@@H](C)N)C4=O)n3)n21 [Example 12, 4-[(1R)-1-aminoethyl]-2-{6-[(5R)-5-ethyl-6,7-dihydro-5H-pyrrolo[2,1-c][1,2,4]triazol-3-yl]pyridin-2-yl}-6-[methyl(propan-2-yl)amino]-2,3-dihydro-1H-pyrrolo[3,4-c]pyridin-1-one]
- Ki [1]: 1.98 nM

SMILES: CCCn1cnnc1-c1cccc(N2Cc3c(cc(N(C)C)nc3[C@H](N)CC)C2=O)n1 (stereo in doubt) [Example 142, 4-[(1ξ)-1-aminopropyl]-6-(dimethyl-amino)-2-[6-(4-propyl-4H-1,2,4-triazol-3-yl)pyridin-2-yl]-2,3-dihydro-1H-pyrrolo[3,4-c]pyridin-1-one]
- Ki [1]: 1.54 nM

SMILES: C[C@H](N)c1nc(N2CCC[C@H]2C)cc2c1CN(c1cccc(-c3nnc4n3[C@@H](CF)CC4)n1)C2=O [Example 19, 4-[(1ξ)-1-aminoethyl]-2-{6-[(5R)-5-(fluoromethyl)-6,7-dihydro-5H-pyrrolo[2,1-c][1,2,4]triazol-3-yl]pyridin-2-yl}-6-[(2R)-2-methylpyrroli-din-1-yl]-2,3-dihydro-1H-pyrrolo[3,4-c]pyridin-1-one]
- Ki [1]: 0.15 nM

SMILES: CC[C@@H](N)c1nc(N(C)C(C)C)cc2c1CN(c1cccc(-c3nnc4n3[C@@H](C)CC4)n1)C2=O [Example 5]
- IC50 ([2]; Homo sapiens, Jurkat): 31 nM
